In ChEMBL document CHEMBL5390218, “Benzimidazole derivatives as tubulin polymerization inhibitors: Design, synthesis and in vitro cytotoxicity studies” (Bioorg Med Chem Lett, 2023):
pIC50: −log10 of the molar value. Calls of active or inactive are those of the source. The calls are words filed in the database; no cut-off is given here.

Key:
SK-MEL-28 [1] = experiment: Induction of apoptosis in human SK-MEL-28 cells assessed as live cells at 5 uM incubated for 24 hrs by Annexin V-FITC/PI dual staining based flow cytometry analysis (reference value: 99.9%); type: functional
SK-MEL-28 [2] = experiment: Induction of ROS generation in human SK-MEL-28 cells by DCFDA staining based analysis; type: functional, cell-based; settings: dose 1-5 µM
SK-MEL-28 [3] = experiment: Induction of apoptosis in human SK-MEL-28 cells assessed as necrotic cells at 2.5 uM incubated for 24 hrs by Annexin V-FITC/PI staining based flow cytometry analysis (reference value: 0.1%); type: functional
Tubulin (Homo sapiens) = Tubulin (Homo sapiens) (UniProt P68371+Q9H4B7+P0DPH7+P68366+Q13509+Q71U36+P04350+Q3ZCM7+P07437+P68363+Q9BQE3+Q6PEY2+Q13885+Q9BVA1+Q9BUF5); experiment: Inhibition of tubulin polymerization (unknown origin) at 1.5 uM incubated for 1 hr relative to control; type: protein-complex assay
SK-MEL-28 [4] = experiment: Induction of apoptosis in human SK-MEL-28 cells assessed as late apoptotic cells at 1 uM incubated for 24 hrs by Annexin V-FITC/PI dual staining based flow cytometry analysis (reference value: 0.1%); type: functional
SK-MEL-28 [5] = experiment: Induction of mitochondrial membrane potential changes in human SK-MEL-28 cells assessed as J-aggregate level by measuring red fluorescence intensity at 2.5 uM incubated for 48 hrs by JC-1 staining based analysis (reference value: 98.9%); type: functional
SK-MEL-28 [6] = experiment: Induction of apoptosis in human SK-MEL-28 cells assessed as early apoptotic cells at 1 uM incubated for 24 hrs by Annexin V-FITC/PI dual staining based flow cytometry analysis (reference value: 0.0%); type: functional
SK-MEL-28 [7] = experiment: Induction of morphological changes in human SK-MEL-28 cells assessed as chromatin condensation at 1 to 5 uM measured after 48 hrs DAPI staining based analysis; type: functional, cell-based; settings: dose 1-5 µM
SK-MEL-28 [8] = experiment: Induction of morphological changes in human SK-MEL-28 cells assessed as production of apoptotic bodies by ethidium bromide/acridine orange staining based analysis; type: functional, cell-based; settings: dose 1-5 µM
SK-MEL-28 [9] = experiment: Induction of mitochondrial membrane potential depolarization in human SK-MEL-28 cells assessed as J-monomer level by measuring green fluorescence intensity at 2.5 uM incubated for 48 hrs by JC-1 staining based analysis (reference value: 0.8%); type: functional
HCT-116 = experiment: Anticancer activity against human HCT-116 cells assessed as inhibition in cell growth measured after 72 hrs by MTT assay; type: functional, cell-based; settings: HCT-116, 72 h
SK-MEL-28 [10] = experiment: Induction of cell cycle arrest in human SK-MEL-28 cells assessed as accumulation of cells at G0-G1 phase at 5 uM measured after 48 hrs by PI staining based flow cytometry (reference value: 74.32%); type: functional
SK-MEL-28 [11] = experiment: Induction of apoptosis in human SK-MEL-28 cells assessed as early apoptotic cells at 2.5 uM incubated for 24 hrs by Annexin V-FITC/PI dual staining based flow cytometry analysis (reference value: 0.0%); type: functional
SK-MEL-28 [12] = experiment: Induction of cell cycle arrest in human SK-MEL-28 cells assessed as accumulation of cells at G2 phase at 5 uM measured after 48 hrs by PI staining based flow cytometry (reference value: 9.17%); type: functional
B16-F10 = experiment: Anticancer activity against mouse B16-F10 cells assessed as inhibition in cell growth measured after 72 hrs by MTT assay; type: functional, cell-based; settings: B16-F10, 72 h
[13] = Selectivity index, ratio of IC50 for NRK-52E cells to ratio of IC50 for human A549 cells; type: toxicity; settings: rat (NRK-52E), NRK-52E cells versus A549 cells, read-out: Selectivity Index
SK-MEL-28 [14] = experiment: Induction of apoptosis in human SK-MEL-28 cells assessed as live cells at 2.5 uM incubated for 24 hrs by Annexin V-FITC/PI dual staining based flow cytometry analysis (reference value: 99.9%); type: functional
MCF7 = experiment: Anticancer activity against human MCF7 cells assessed as inhibition in cell growth measured after 72 hrs by MTT assay; type: functional, cell-based; settings: MCF7, 72 h
SK-MEL-28 [15] = experiment: Induction of morphological changes in human SK-MEL-28 cells assessed as cell shrinkage by ethidium bromide/acridine orange staining based analysis; type: functional; settings: dose 1-5 µM
SK-MEL-28 [16] = experiment: Induction of morphological changes in human SK-MEL-28 cells assessed as chromatin condensation by ethidium bromide/acridine orange staining based analysis; type: functional, cell-based; settings: dose 1-5 µM
[17] = Selectivity index, ratio of IC50 for NRK-52E cells to ratio of IC50 for human HCT-116 cells; type: toxicity; settings: rat (NRK-52E), NRK-52E cells versus HCT-116 cells, read-out: Selectivity Index
SK-MEL-28 [18] = experiment: Induction of morphological changes in human SK-MEL-28 cells assessed as nuclear shrinkage at 1 to 5 uM measured after 48 hrs DAPI staining based analysis; type: functional, cell-based; settings: dose 1-5 µM

With `COc1cc(-c2nc3cc(F)ccc3[nH]2)ccc1OCC(=O)N1CCc2ccccc21` the Activity (SK-MEL-28 [1]) was 50.7%, the Activity (SK-MEL-28 [2]) was “Dose-Dependent Effect” and the Activity (SK-MEL-28 [3]) was 1%. For the same molecule, the inhibition (Tubulin (Homo sapiens)) was 35.1%, the Activity (SK-MEL-28 [4]) was 10.7% and the Activity (SK-MEL-28 [5]) was 96.7%. The Activity (SK-MEL-28 [6]) was 60.8%, the Activity (SK-MEL-28 [7]) was “Active” and the Activity (SK-MEL-28 [8]) was “Dose-Dependent Effect”. It also gave an Activity (SK-MEL-28 [9]) of 3.2%, a pIC50 (HCT-116) of 5.16 and an Activity (SK-MEL-28 [10]) of 49.28%. It also gave an Activity (SK-MEL-28 [11]) of 26.4%, an Activity (SK-MEL-28 [12]) of 26.05% and a pIC50 (B16-F10) of 5.51. The selectivity ratio [13] was 14, the Activity (SK-MEL-28 [14]) was 52.5% and the pIC50 (MCF7) was 4.75. The Activity (SK-MEL-28 [15]) was “Dose-Dependent Effect”, the Activity (SK-MEL-28 [16]) was “Dose-Dependent Effect” and the selectivity ratio [17] was 7.7. For the same molecule, the Activity (SK-MEL-28 [18]) was “Active”.
